From ChEMBL document CHEMBL3632471, “Inhibitory effects of compounds from Styrax obassia on NO production” (Bioorg Med Chem Lett, 2015)
Active and inactive are the calls of the source. No cut-off for these calls is given here.

Columns and labels:
RAW264.7 [1] = assay: Antiinflammatory activity in mouse RAW264.7 cells assessed as inhibition of LPS-induced NO production at 3 to 30 ug/ml after 24 hrs by Griess reaction; type: functional
RAW264.7 [2] = assay: Antiinflammatory activity in mouse RAW264.7 cells assessed as inhibition of LPS-induced COX2 expression at 3 to 30 ug/ml after 18 hrs by Western blot analysis; type: functional, cell-based
RAW264.7 [3] = assay: (§1) Cytotoxicity against mouse RAW264.7 cells assessed as cell viability at 3 to 30 ug/ml after 24 hrs by MTT assay; type: cell-based; details: raw264.7, 24 h
RAW264.7 [4] = assay: Antiinflammatory activity in mouse RAW264.7 cells assessed as inhibition of LPS-induced iNOS expression after 18 hrs by Western blot analysis; type: functional, cell-based
RAW264.7 [5] = assay: Antiinflammatory activity in mouse RAW264.7 cells assessed as inhibition of LPS-induced NO production at 30 ug/ml after 24 hrs by Griess reaction; type: functional, cell-based
[6] = as §1; type: cell-based; details: RAW264.7 cells, read-out: Activity

SMILES: COc1cc([C@H]2OC[C@H]3[C@@H]2CO[C@H]3c2ccc(O)c(OC)c2)ccc1O (stereo in doubt; 12)
- inhibition (RAW264.7 [1]): inactive

SMILES: COc1cc(CCCO)cc2cc(-c3ccc4c(c3)OCO4)oc12
- inhibition (RAW264.7 [1]): inactive

SMILES: COc1cc([C@H]2OC[C@H]3[C@@H]2CO[C@@H]3c2cc(OC)c(O)c(OC)c2)cc(OC)c1O
- inhibition (RAW264.7 [1]): inactive

SMILES: COc1ccc(-c2cc3cc([C@@H](O)CCO)cc(OC)c3o2)cc1OC
- inhibition (RAW264.7 [2]): Active
- Activity (RAW264.7 [3]): Non-toxic
- inhibition (RAW264.7 [4]): Dose-dependent effect
- inhibition (RAW264.7 [5]): inactive

SMILES: COc1cc([C@@H]2OCC3C(=O)OCC32)ccc1O (some centres undefined)
- viability at 24 h [6]: 60%
- inhibition (RAW264.7 [5]): inactive

SMILES: COc1cc(C[C@H]2CO[C@H](c3ccc(O)c(OC)c3)[C@H]2CO)ccc1O
- inhibition (RAW264.7 [1]): inactive

SMILES: COc1ccc(-c2cc3cc(CCCO)cc(OC)c3o2)cc1OC
- inhibition (RAW264.7 [5]): inactive

SMILES: COc1cc(-c2oc3c(OC)cc(CCCO)cc3c2C=O)ccc1O
- inhibition (RAW264.7 [1]): inactive

SMILES: COc1cc([C@H]2OC[C@H]3[C@@H]2CO[C@H]3c2ccc(O)c(OC)c2)ccc1O (stereo in doubt; 11)
- inhibition (RAW264.7 [1]): inactive

SMILES: COc1cc(C(O)CCO)cc2cc(-c3ccc4c(c3)OCO4)oc12 (centres undefined)
- inhibition (RAW264.7 [1]): inactive
